Columns and labels:
Type in all cases: in vivo, human
participants with NT2 [1] = experiment: MWT sleep onset latency, Phase 2 NT2 trial (Example 2); conditions: not statistically significant (p>0.4)
Protocol: In some aspects of the methods described herein, the subject experiences a higher mean sleep latency (also referred to as sleep onset latency or SOL) from the Maintenance of Wakefulness Test (MWT) after a treatment period compared to an untreated subject. The MWT is a validated, objective measure that evaluates a person's ability to remain awake under soporific conditions for a defined period of time. Because there is no biological measure of wakefulness, wakefulness is measured indirectly by the inability or delayed tendency to fall asleep. This tendency to fall asleep is measured via electroencephalography-derived sleep latency in the MWT. One MWT, that includes four 40-minute wake trials, is done on each day specified in the Schedule of Activities of the trial. Sleep latency in each wake trial is recorded. Participants are required to stay awake in between the 4 MWT wake trials.
During each MWT wake trial, participants are instructed to sit in a bed or reclining chair and remain awake for as long as possible in a dimly lit room. Wake trials are ended after 40 minutes if no sleep occurs. If no sleep has been observed according to these rules, then the latency is defined as 40 minutes.
Randomization was stratified by region. Starting on the morning of Day 1, the study drug was administered at approximately the same time each day for 8 weeks. […]

participants with NT2 [2] = experiment: Safety (TEAEs), long-term extension (LTE) study, NT2 participants
Protocol: Eligible participants were age 18-70 years, with Epworth Sleepiness Scale (ESS) score>12 and no other current EDS-related medical conditions. Participants were randomized 1:1:1 to daily oral Compound A 2 mg twice 3 hours apart, 2 mg then 5 mg 3 hours later, or placebo. Study endpoints included change from baseline to Week 8 in mean Sleep Onset Latency on the Maintenance of Wakefulness Test (mean SOL-MWT; primary endpoint), ESS total score, and incidence of treatment-emergent adverse events (TEAEs). Participants who completed the placebo-controlled study could enroll in a ˜2-year Long Term Extension (LTE) study. LTE TEAE data up to Jan. 25, 2024 are reported.
This was a phase 2/3 multicenter, dose-blind, long-term extension (LTE) study of Compound A. Participants from controlled studies conducted with Compound A, who had up to a 3-month dosing gap between their parent study and the screening period for this study, were eligible to participate in this study.
Day 1 dosing for all participants occurred in-clinic with PK and safety assessments. Participants who were undergoing nocturnal polysomnography (nPSG) and an MWT during the final assessment of their Compound A parent study had the option of staying overnight in the clinic on Day −1 so they were already in the clinic for Day 1 the following day. […]

participants with NT1 = experiment: Psychomotor vigilance test (PVT), sustained attention, Phase 2 NT1 trial
Source text: The psychomotor vigilance test (PVT) is validated as a clinical outcome assessment of the ability to sustain attention. The PVT is a simple reaction performance task that aims to measure sustained attention with no learning effects over repeated administration. Differences between healthy controls and patients with narcolepsy have been found on PVT performance for reaction time, accuracy, and other measures. The PVT is sensitive to the effects of total sleep loss, partial sleep restriction, naps, and circadian variation in the healthy population. The duration of test is 10 minutes.
Outcomes of this study included a performance-based test of attention, the Psychomotor Vigilance Task (PVT; administered 1 and 7 hours post first dose, assessed at baseline and weeks 4 and 8) and two assessments of EDS: the Maintenance of Wakefulness Test (MWT; administered 2, 4, 6, and 8 hours post first dose, assessed over 4 sessions) and the Epworth Sleepiness Scale (ESS; using a 7-day recall period, assessed at baseline and weeks 2, 4, and 8). At baseline, associations between attention (as measured by number of PVT lapses), and objective (MWT) and subjective (ESS) measures of EDS were computed. For PVT and MWT, covariation in change throughout the day at end of study was investigated. The effect of different Compound A doses on wakefulness and attention were compared for each outcome. […]

Compound: CCS(=O)(=O)N[C@@H]1[C@H](Cc2cccc(-c3cc(F)cc(F)c3)c2F)N(C(=O)C(C)(C)O)CC1(F)F [Compound A, N-{(2S,3R)-4,4-difluoro-1-(2-hydroxy-2-methylpropanoyl)-2-[(2,3′,5′-trifluoro[1,1′-biphenyl]-3-yl)methyl]pyrrolidin-3-yl}ethanesulfonamide]
- Estimated mean change from baseline to Week 8 in SOL-MWT versus placebo (participants with NT2 [1]; 2 mg/2 mg): -0.24 min
- Estimated mean change from baseline to Week 8 in SOL-MWT versus placebo (participants with NT2 [1]; 2 mg/5 mg): 2.4 min
- Participants discontinued due to TEAEs (participants with NT2 [2]): 3
- Participants who experienced TEAEs (participants with NT2 [2]; treated participants (41/57), data up to Jan. 25, 2024): 71.9%
- PVT lapses, least squares mean differences from placebo (participants with NT1; all Compound A doses, 1 hour and 7 hours post-first dose (p<0.05)): significant
- Attention (PVT lapses) (participants with NT1; week 8, all doses (all p<0.05)): improved attention across all doses
